The values that follow come from ChEMBL document CHEMBL1759971, “Substituted phenyl triazoles as selective inhibitors of 11β-Hydroxysteroid Dehydrogenase Type 1” (Bioorg Med Chem Lett, 2011).

Data set [1] concerns the target T1, Nuclear receptor subfamily 1 group I member 2 (Homo sapiens, UniProt O75469).
T1 sequence (O75469 whole entry): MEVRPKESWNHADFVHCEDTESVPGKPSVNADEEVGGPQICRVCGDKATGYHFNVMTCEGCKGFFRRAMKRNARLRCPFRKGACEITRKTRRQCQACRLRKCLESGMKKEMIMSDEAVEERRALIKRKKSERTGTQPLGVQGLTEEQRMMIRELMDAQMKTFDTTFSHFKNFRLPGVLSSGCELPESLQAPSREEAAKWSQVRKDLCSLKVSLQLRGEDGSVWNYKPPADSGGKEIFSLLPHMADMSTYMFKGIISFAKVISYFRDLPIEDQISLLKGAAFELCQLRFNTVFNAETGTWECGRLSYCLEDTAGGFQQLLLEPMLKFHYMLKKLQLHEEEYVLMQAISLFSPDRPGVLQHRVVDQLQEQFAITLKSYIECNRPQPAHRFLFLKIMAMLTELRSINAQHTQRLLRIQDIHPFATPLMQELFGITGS
The experiment in a line: Agonist activity at PXR at 10 uM. The data set is classed as functional.

Data set [2] concerns the target 11-beta-hydroxysteroid dehydrogenase 1 (Homo sapiens, UniProt P28845). In words: Inhibition of human 11beta-HSD1 expressed in CHO-K1 cells assessed as conversion of [3H]cortisone to [3H]cortisol by scintillation counting. The data set is classed as cell-based.
Data set [3] deals with Mus musculus. In words: Inhibition of 11beta-HSD1 in ICR mouse assessed as conversion of [3H]cortisone to [3H]cortisol at 10 mg/kg, po after 16 hrs by scintillation counting. Type of data set: functional.
Data set [4] concerns the target T1, Nuclear receptor subfamily 1 group I member 2. In words: Agonist activity at PXR. The data set is classed as functional.
A further data set concerns the target Cytochrome P450 2D6 (Homo sapiens, UniProt P10635). The experiment in a line: Inhibition of CYP2D6. Type of data set: ADME.
The nature of data set [5]: Half life in C57BL/6 mouse. The data set is classed as ADME, organism-based. As to conditions: in vivo.
Data set [6] in a line: Oral bioavailability in C57BL/6 mouse. As to conditions: in vivo. The data set is classed as ADME, organism-based.
Another data set deals with Cytochrome P450 3A4 (Homo sapiens, UniProt P08684). The experiment in a line: Inhibition of CYP3A4. Type of data set: ADME.
Sequence of Cytochrome P450 3A4 (P08684 whole entry): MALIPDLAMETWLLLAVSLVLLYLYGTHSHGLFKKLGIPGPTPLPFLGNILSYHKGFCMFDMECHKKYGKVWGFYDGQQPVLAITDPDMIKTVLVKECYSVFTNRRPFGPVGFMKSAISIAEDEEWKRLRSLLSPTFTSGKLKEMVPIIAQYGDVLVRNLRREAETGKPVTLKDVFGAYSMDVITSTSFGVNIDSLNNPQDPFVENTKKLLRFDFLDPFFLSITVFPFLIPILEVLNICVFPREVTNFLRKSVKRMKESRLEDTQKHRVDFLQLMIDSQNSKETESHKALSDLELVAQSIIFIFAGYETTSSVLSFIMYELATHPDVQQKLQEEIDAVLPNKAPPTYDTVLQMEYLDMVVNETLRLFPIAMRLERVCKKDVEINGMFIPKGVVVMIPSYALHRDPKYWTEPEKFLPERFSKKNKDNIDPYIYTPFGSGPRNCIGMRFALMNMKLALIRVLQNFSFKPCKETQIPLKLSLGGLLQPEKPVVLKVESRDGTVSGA
The subject of data set [7] is Mus musculus. In words: Inhibition of 11beta-HSD1 in ICR mouse assessed as conversion of [3H]cortisone to [3H]cortisol at 10 mg/kg, po after 4 hrs by scintillation counting. The data set is classed as functional.
Data set [8] concerns the target T2, 11-beta-hydroxysteroid dehydrogenase type 2 (Mus musculus, UniProt P51661).
T2 sequence (P51661 whole entry): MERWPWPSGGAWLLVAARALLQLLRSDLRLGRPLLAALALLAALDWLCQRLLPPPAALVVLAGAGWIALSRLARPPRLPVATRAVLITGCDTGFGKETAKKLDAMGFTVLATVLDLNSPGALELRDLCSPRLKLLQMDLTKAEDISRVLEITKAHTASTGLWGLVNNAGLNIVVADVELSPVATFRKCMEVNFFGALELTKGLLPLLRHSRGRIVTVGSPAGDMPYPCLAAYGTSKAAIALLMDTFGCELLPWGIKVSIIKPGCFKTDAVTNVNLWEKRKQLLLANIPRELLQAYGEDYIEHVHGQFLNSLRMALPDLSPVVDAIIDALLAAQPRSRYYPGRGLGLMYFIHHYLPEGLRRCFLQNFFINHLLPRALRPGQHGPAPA
The experiment in a line: Inhibition of mouse 11beta-HSD2.

For data set [9], the target named is T3, 11-beta-hydroxysteroid dehydrogenase type 2 (Homo sapiens, UniProt P80365).
T3 sequence (P80365 whole entry): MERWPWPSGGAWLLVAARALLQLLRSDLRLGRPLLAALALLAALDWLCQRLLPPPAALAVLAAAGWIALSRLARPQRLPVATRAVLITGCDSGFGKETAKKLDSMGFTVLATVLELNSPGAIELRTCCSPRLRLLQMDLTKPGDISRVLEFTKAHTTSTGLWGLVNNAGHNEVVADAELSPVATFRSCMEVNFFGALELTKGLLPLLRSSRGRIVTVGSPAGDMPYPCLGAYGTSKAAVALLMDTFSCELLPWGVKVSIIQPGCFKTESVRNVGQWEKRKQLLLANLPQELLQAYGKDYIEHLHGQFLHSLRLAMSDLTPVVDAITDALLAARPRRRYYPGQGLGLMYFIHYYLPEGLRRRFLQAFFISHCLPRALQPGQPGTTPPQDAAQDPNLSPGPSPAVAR
The experiment in a line: Inhibition of human 11beta-HSD2.

The next data set concerns the target Cytochrome P450 2C9 (Homo sapiens, UniProt P11712). In words: Inhibition of CYP2C9. Type of data set: ADME.
Data set [10] deals with 11-beta-hydroxysteroid dehydrogenase 1 (Mus musculus, UniProt P50172). The experiment in a line: Inhibition of mouse 11beta-HSD1 expressed in CHO-K1 cells assessed as conversion of [3H]cortisone to [3H]cortisol by scintillation counting. The data set is classed as cell-based.
Sequence of 11-beta-hydroxysteroid dehydrogenase 1 (Mus musculus, UniProt P50172) (P50172 whole entry): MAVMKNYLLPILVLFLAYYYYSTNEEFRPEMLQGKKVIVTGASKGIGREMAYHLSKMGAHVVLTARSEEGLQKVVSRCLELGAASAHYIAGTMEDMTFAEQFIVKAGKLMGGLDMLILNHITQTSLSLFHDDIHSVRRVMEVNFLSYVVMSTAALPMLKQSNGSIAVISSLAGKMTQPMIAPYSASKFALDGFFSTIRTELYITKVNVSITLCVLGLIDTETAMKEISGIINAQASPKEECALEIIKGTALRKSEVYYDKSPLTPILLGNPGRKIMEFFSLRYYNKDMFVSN
The nature of data set [11]: Blood clearance in C57BL/6 mouse. Type of data set: ADME, organism-based.
Data set [12] deals with Mus musculus. In words: Inhibition of 11beta-HSD1 in ICR mouse assessed as conversion of [3H]cortisone to [3H]cortisol at 10 mg/kg, po after 1 hr by scintillation counting. The data set is classed as functional.

Sequence of 11-beta-hydroxysteroid dehydrogenase 1 (Homo sapiens, UniProt P28845) (P28845 whole entry): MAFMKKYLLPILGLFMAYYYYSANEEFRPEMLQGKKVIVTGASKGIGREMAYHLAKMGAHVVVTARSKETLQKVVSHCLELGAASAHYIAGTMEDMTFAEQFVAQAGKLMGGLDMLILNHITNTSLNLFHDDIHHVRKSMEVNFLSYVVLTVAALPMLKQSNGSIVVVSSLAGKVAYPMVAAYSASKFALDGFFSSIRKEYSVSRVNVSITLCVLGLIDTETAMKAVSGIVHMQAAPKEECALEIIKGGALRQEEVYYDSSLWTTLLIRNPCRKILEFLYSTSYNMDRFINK
Sequence of Cytochrome P450 2C9 (P11712 whole entry): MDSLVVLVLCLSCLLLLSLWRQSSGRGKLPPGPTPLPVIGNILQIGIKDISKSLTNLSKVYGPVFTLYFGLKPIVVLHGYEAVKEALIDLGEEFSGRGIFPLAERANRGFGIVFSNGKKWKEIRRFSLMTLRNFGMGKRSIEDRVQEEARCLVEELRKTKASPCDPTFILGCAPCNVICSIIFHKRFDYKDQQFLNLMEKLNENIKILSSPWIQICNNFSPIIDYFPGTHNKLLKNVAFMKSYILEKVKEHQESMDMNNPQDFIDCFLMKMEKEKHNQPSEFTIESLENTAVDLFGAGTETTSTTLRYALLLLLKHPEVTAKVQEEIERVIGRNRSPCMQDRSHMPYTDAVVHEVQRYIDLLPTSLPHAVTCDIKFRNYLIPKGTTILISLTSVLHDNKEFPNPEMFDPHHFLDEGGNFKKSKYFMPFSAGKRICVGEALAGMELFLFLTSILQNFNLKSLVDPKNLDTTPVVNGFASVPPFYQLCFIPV
Sequence of Cytochrome P450 2D6 (P10635 whole entry): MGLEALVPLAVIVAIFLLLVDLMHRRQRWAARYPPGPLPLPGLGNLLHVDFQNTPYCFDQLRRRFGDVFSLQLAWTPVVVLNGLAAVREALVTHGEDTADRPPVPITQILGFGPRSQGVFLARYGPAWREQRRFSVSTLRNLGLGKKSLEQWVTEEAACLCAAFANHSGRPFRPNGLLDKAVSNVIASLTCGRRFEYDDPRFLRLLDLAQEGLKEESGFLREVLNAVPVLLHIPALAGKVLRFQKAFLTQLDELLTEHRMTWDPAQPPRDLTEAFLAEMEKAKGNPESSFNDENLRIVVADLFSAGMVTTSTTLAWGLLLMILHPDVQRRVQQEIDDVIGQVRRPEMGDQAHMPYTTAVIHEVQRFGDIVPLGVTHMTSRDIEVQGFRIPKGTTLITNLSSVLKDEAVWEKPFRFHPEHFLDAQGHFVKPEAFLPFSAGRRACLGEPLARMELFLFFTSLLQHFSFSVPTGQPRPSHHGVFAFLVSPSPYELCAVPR

`Cn1c(-c2ccc(-c3cnccn3)cc2)nnc1C1(c2ccc(Cl)cc2)CCC1` gave an Activity in [1] of 23%. In addition, the IC50 (in general, the concentration needed to halve the response being measured) in data set [2] was 0.0023 µM; on Cytochrome P450 2D6 it was 16 µM; against Cytochrome P450 3A4, 10 µM; in data set [8] it was greater than 4 µM; in data set [9], greater than 4 µM; on Cytochrome P450 2C9 it was 13 µM. The IC50 in [10] is less than 0.001 µM. In addition, the inhibition in vivo (in general, the drop in the measured response relative to a control, in per cent) at 10 mg/kg with Mus musculus [3] was 79%; in the data set with Mus musculus [7] it was 93%. Further, in [4], the EC50 (commonly the concentration at which the effect is half-maximal) is greater than 30 µM. Further, the half-life (commonly the time needed for the level to fall by half in the phase considered) in [5] is 0.7 h. In addition, the bioavailability – broadly, the share of a dose that reaches the circulation, judged against a reference dose that is usually intravenous – in data set [6] is 30%. Further, the clearance (usually a measure of how efficiently the substance is removed, as volume per time) in data set [11] amounted to 54 mL/min/kg.

Molecule `Cn1c(-c2ccc(-c3cnccn3)cc2Cl)nnc1C1(c2ccc(Cl)cc2)CC(F)C1` (centres undefined) showed an Activity in data set [1] of 23%. Moreover, the IC50 in [2] was 0.0055 µM; against Cytochrome P450 2D6, 25 µM; at Cytochrome P450 3A4, 36 µM; in data set [8] it was greater than 4 µM; in data set [9], greater than 4 µM; against Cytochrome P450 2C9 it was 26 µM. The IC50 in data set [10] was 0.0023 µM. The inhibition in vivo at 10 mg/kg was determined as 80% in the data set with Mus musculus [3] and 95% in the data set with Mus musculus [7]. In addition, in [4], the EC50 is greater than 30 µM. Moreover, the half-life in data set [5] was 6.8 h. Besides, the bioavailability in data set [6] was 96%. In data set [11], this molecule gave a clearance of 5 mL/min/kg.

With `C1CCCn2c(nnc2C23CC4CC(CC(C4)C2)C3)CC1`, the IC50 in [2] was 0.0078 µM; in data set [8] it was greater than 4 µM; in data set [9] it was greater than 4 µM; in data set [10] it was 0.098 µM. In addition, the inhibition in vivo at 10 mg/kg was 31% with Mus musculus [12] and 21% in the data set on Mus musculus [7].
